From patent publication US20230310435A1, “HOST DEFENSE PROTEIN (HDP) MIMETICS FOR PROPHYLAXIS AND/OR TREATMENT OF INFLAMMATORY DISEASES OF THE GASTROINTESTINAL TRACT” (priority 2015, published 2023)

Key:
[1] = system: DSS-induced colitis; test: Dextran sulfate sodium (DSS)-induced acute colitis model; type: in vivo, male C57BL/6 mice; conditions: end of study; brilacidin 400 mg/kg or 5-ASA 50 mg/kg per rectum Days 7-11
Procedure: The efficacy of brilacidin administered was investigated in a murine model of chemically-induced acute colitis using dextran sulfate sodium (DSS). This was a different in vivo model of IBD to the testing performed in Examples 16 and 17 (where mucosal injury was induced by using acetic acid). DSS-induced colitis in mice is characterized by weight loss, bloody diarrhea, intestinal ulcerations and infiltrations with granulocytes. In mice, DSS was administered from Day 0 to Day 11, as a 5% (w/v) DSS solution in the drinking water of male C57BL/6 mice (Kim J J, et al., J. Vis. Exp., 2012, 60, 3678), to induce severe murine colitis. On Days 7-11, test compound brilacidin (400 mg/kg) or positive control 5-ASA (50 mg/kg) or water (negative control) were administered as a solution, per rectum. On Days 6, 10 and 11, rectal bleeding was assessed using a Hemoccult® kit and stool consistency was visually assessed; severity of symptoms were scored on a scale of 0 (normal) to 4 (severe). Level of pro-inflammatory cytokines interleukin (IL)-6 and IL-1β in distal colon tissue were determined from excised colons using conventional ELISA methods.

[2] = system: acetic acid-induced colitis; type: in vivo
Procedure: (§1) Method for FIG. 14. […] Balb/c mice were fasted for 24 hours. Colitis was induced by injecting 200 μL of 4% acetic acid into the rectum. […] Another group of animals were treated with 5-ASA (5-aminosalicylic acid or mesalamine), and another received no treatment. Seven days after the first dose, five cm of intestine were cleaned in cold saline then weighed.
as §1, with “15.” for “14.”, “dose the colon was examined visually for mucosal injury and scored according to the Table below.” for “dose, five cm of intestine were cleaned in cold saline then weighed.”
Briefly, colitis was induced by injecting 4% acetic acid into the rectum.

[3] = biological target: human PDE4B2 (Homo sapiens, UniProt Q07343); test: PDE-Glo phosphodiesterase assay, PDE4; type: biochemical; conditions: 8 ng PDE4B, 1 μM cAMP substrate, 15 min pre-incubation; read-out: IC50, inhibition of PDE4
human PDE4B2, sequence (Q07343 1-564 isoform Q07343-2): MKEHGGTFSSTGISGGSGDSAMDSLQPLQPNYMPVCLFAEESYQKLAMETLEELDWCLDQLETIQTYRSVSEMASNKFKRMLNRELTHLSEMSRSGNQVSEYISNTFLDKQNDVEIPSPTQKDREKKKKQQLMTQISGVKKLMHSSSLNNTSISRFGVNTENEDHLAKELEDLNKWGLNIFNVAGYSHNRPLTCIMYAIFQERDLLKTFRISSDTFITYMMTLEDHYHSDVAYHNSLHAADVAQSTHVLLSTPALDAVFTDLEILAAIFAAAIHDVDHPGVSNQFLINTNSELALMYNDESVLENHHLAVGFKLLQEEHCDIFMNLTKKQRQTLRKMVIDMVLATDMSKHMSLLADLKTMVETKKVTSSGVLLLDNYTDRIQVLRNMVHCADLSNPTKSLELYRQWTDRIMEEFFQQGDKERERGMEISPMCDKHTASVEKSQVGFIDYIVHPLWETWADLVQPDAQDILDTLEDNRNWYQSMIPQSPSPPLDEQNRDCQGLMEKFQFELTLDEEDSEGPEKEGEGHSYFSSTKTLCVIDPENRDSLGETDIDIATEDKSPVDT
Procedure: Method for FIG. 1. […] The compounds and PDE4B (BPS Biosciences, San Diego, CA) were mixed and pre-incubated at room temperature for 15 minutes. Substrate was added and the reaction was incubated for 7 minutes at room temperature. Data are presented as luminescence units (RLU).
Method for FIG. 2. Phosphodiesterase inhibition assays of PDE4 were performed, using PMX-60056. The PDE-Glo phosphodiesterase assay (Promega, Madison, WI, USA Catalog No. V1361) was performed using 8 ng of PDE4B (BPS Biosciences, San Diego, CA). […] The compounds and PDE4B were mixed and pre-incubated at room temperature for 15 minutes. Substrate was added and the reaction was incubated for 7 minutes at room temperature. Data are presented as luminescence units (RLU).
Phosphodiesterase type 4 (PDE4) is predominant phosphodiesterase expressed in neutrophils, T cells and macrophages. PDE inhibitors show broad spectrum of anti-inflammatory effects in almost all inflammatory cells. PDE4 inhibitors, block the degradative action of PDE4 on cAMP, thereby increasing intracellular levels of cAMP levels which mediate phosphorylation of protein kinases. […] Data are presented as luminescence units (RLU).
The PDE-Glo phosphodiesterase assay was performed according to the Method described for FIG. 2, using 8 ng of PDE4B, 1 μM cAMP substrate PMX-60056. Data are presented as luminescence units (RLU). […]

[4] = system: LPS-induced MCP-1 release, NR8383 cells; test: LPS-induced MCP-1 release in NR8383 rat macrophages (ELISA); type: cell-based
Procedure: Method for FIG. 7. […] After 8 hours, supernatants were collected for MCP-1 measurement by ELISA. MCP-1 was measured using an immunoassay kit according to manufacturer's instructions (Thermo Scientific, Rockford. IL).
Method for FIG. 8. MCP-1 assays were performed using PMX-60056. Rat macrophages (NR8383) were pretreated with […] with concentrations shown for 45 minutes, followed by 1 μg/ml LPS treatment from E. coli (Sigma, St. Louis, MO) for 8 hours. After 8 hours, supernatants were collected for MCP-1 measurement by ELISA. MCP-1 was measured using an immunoassay kit according to manufacturer's instructions (Thermo Scientific, Rockford, IL).
The MCP-1 inhibition assay was performed according to the Method described for FIG. 7.
The MCP-1 inhibition assay was performed according to the Method described for FIG. 8.
(§2) PDE4 and PDE3 inhibition results in subsequent down-regulation of pro-inflammatory cytokines/chemokines and its regulators, and experiments were conducted to confirm such down-regulation by brilacidin in ex vivo cell-based assays. In these assays, cells were exposed to brilacidin 45 minutes before an 8-hour lipopolysaccharide (LPS) stimulation in the presence of brilacidin; cytokine/enzyme concentrations were determined by ELISA using a standard immunoassay kit.

[5] = system: LPS-induced TNF-α release, NR8383 cells; test: LPS-induced TNF-α production in NR8383 rat macrophages (ELISA); type: cell-based
Procedure: Method for FIG. 5. TNF-alpha assays were performed using PMX-30063. […] TNF-α concentrations in the supernatants were determined by ELISA using an immunoassay kit specific for rat TNF-α (R&D Systems, Minneapolis, MN) according to manufacturer's instructions.
Method for FIG. 6. TNF-alpha assays were performed using PMX-60056. NR8383 rat macrophage cells were pretreated with PMX-60056 for 45 minutes followed by treatment with 1 μg/ml LPS from E. coli (Sigma, St. Louis, MO) for 8 hours. TNF-α concentrations in the supernatants were determined by ELISA using an immunoassay kit specific for rat TNF-α (R&D Systems, Minneapolis, MN) according to manufacturer's instructions.
The TNF-α inhibition assay was performed according to the Method described for FIG. 5. […] TNF-α concentrations in the supernatants were determined by ELISA using an immunoassay kit specific for rat TNF-α (R&D Systems).
The TNF-α inhibition assay was performed according to the Method described for FIG. 6. NR8383 rat macrophage cells (CRL-2192. ATCC) were pretreated with PMX-60056 for 45 minutes followed by treatment with 1 μg/ml LPS for 8 hours. TNF-α concentrations in the supernatants were determined by ELISA using an immunoassay kit specific for rat TNF-α (R&D Systems).
as §2

[6] = biological target: human PDE3A (Homo sapiens, UniProt Q14432); test: PDE-Glo phosphodiesterase assay, PDE3; type: biochemical; conditions: 2.75 ng PDE3A, 1 μM cAMP substrate, 15 min pre-incubation; read-out: IC50, inhibition of PDE3
human PDE3A, sequence (Q14432 whole entry): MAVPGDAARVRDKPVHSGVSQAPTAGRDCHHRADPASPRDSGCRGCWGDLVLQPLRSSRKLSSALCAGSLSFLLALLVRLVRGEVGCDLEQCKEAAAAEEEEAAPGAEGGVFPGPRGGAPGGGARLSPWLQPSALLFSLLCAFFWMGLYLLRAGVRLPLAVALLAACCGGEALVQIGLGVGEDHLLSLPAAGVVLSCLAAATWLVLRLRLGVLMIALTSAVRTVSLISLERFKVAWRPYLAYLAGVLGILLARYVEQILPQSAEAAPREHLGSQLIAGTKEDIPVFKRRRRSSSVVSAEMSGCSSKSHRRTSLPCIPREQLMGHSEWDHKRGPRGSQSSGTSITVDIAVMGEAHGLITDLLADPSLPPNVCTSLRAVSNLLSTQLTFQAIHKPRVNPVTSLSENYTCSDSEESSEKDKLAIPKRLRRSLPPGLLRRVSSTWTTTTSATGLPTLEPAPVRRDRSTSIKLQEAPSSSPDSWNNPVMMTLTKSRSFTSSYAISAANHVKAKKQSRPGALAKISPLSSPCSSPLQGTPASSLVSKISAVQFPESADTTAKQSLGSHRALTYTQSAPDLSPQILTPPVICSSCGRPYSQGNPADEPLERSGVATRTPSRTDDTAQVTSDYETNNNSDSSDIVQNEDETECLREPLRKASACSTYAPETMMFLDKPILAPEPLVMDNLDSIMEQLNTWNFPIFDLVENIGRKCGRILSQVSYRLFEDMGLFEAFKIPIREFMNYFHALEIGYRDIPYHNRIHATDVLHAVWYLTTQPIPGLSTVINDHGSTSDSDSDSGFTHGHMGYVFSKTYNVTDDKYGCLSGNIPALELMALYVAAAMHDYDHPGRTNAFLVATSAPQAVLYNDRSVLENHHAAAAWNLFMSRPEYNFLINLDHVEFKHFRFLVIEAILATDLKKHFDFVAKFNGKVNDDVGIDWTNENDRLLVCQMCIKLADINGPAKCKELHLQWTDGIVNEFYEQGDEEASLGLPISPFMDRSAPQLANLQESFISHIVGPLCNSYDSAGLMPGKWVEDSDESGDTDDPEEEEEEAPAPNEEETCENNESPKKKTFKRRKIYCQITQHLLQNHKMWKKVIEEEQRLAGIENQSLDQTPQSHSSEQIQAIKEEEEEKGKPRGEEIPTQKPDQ
Procedure: Method for FIG. 3. […] The compounds and PDE3A were mixed and pre-incubated at room temperature for 15 minutes. Substrate was added and the reaction was incubated for 7 minutes at room temperature. Data are presented as luminescence units (RLU).
Method for FIG. 4. Phosphodiesterase inhibition assays of PDE3 were performed using PMX-60056. The PDE-Glo phosphodiesterase assay (Promega, Madison, WI, USA Catalog No. V1361) was performed according to manufacturer's instruction using 2.75 ng of PDE3A, 1 μM cAMP substrate and PMX60056. The compounds and PDE3A were mixed and pre-incubated at room temperature for 15 minutes. Substrate was added and the reaction was incubated for 7 minutes at room temperature. Data are presented as luminescence units (RLU).
The compounds and PDE3A were mixed and pre-incubated at room temperature for 15 minutes. Substrate was added and the reaction was incubated. […]
as §2

Compound | mean reduction in IL-1β in distal colon tissue compared to DSS-treated control group [1] [%] | mean reduction in IL-6 in distal colon tissue compared to DSS-treated control group [1] [%] | reduction of UC score ([2]; 5-ASA group, not significantly) [%] | efficacy on ulcerative colitis score (in words) ([2]; 5-ASA positive control group) | IC50 [3] [µM] | effect on MCP-1 induction after LPS stimulation (in words) ([4]; NR8383, 45 min pretreatment, LPS 1 μg/ml 8 h) | decrease in MCP-1 levels ([4]; at 0.5 μM, NR8383, LPS 1 μg/ml 8 h) [%] | effect on LPS-induced TNF-α production (in words) ([5]; NR8383, 45 min pretreatment, 1 μg/ml LPS 8 h) | inhibition at 0.0625 µM ([5]; Rattus norvegicus, Macrophage, at 62.5 nM PMX-60056, NR8383, LPS 1 μg/ml 8 h) [%] | IC50 [6] [µM]
Nc1ccc(O)c(C(=O)O)c1 [5-ASA, 5-aminosalicylic acid, reference compound] | 33 | 86 | 67 | no significant efficacy | – | – | – | – | – | –
COc1ccc(NC(=O)[C@H](CCCCN)NC(=O)c2cc(NC(=O)[C@H](CCCCN)NC(=O)c3cc(NC(=O)[C@H](CCCCN)NC(=O)c4cc(NC(=O)[C@@H](N)CCCCN)ccc4OC)ccc3OC)ccc2OC)cc1C(N)=O [PMX-60056] | – | – | – | – | ~3 | strong inhibition | ≥ 25 | inhibited | > 50 | 3
